Target: T1, curli (native curli fibers; monomeric unit CsgA) (Escherichia coli, UniProt P28307)
T1 construct: native curli amyloid fibers isolated from E. coli MC4100; mature secreted CsgA (signal peptide removed); 13 kDa monomeric unit; fiber polymer
Experiment: depletion (centrifugation) assay, absorbance of free dye at […] nm, saturation fit
Assay type: binding

T1 sequence (P28307 21-151): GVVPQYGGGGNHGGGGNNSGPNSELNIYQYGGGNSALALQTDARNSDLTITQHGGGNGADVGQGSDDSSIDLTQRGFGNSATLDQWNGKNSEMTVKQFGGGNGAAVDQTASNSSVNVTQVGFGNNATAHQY

SMILES: O=C(O)c1cc(/C=C/c2ccc(/C=C/c3ccc(O)c(C(=O)O)c3)c(F)c2)ccc1O [FSB, (E,E)-1-fluoro-2,5-bis(3-hydroxycarbonyl-4-hydroxy) styrylbenzene]
- Kd: 7.9 µM

Source: publication PMC6117054, “The Congo red derivative FSB binds to curli amyloid fibers and specifically stains curliated E. coli” (PLoS ONE, 2018)
